Reference: patent US10435361B2, “Kinase inhibitors” (Topivert Pharma Limited, priority 2013, dated 2019)

Legend:
Assay type in all cases: cell-based
[1] = test system: HT29 cells; experiment: IL-1β-induced IL-8 release in HT29 cells; conditions: Homo sapiens, HT-29, assay (d), read-out: IC50 Values for Inhibition of Cytokine Release HT29 cells IL-8
Description: HT29 cells, a human colon adenocarcinoma cell line, are plated in a 96 well plate (24 hr) and pre-treated with compounds at the desired concentration for 2 hours before addition of 5 ng/mL of IL-1β (Abcam) for 24 hours. Supernatants are harvested for IL-8 quantification by Sandwich ELISA (Duo-set, R&D System). The IC50 is determined from the dose response curve.

[2] = test system: PBMCs; experiment: LPS-induced TNFα/IL-8 release in PBMC cells; conditions: Homo sapiens, assay (b), read-out: IC50 Values for Inhibition of Cytokine Release PBMCs IL-8
In short: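 Healthy-donor PBMCs isolated by density gradient were pretreated with compound for 2 h, then stimulated with 1 ng/mL LPS (E. coli 0111:B4) for 24 h at 37° C., 5% CO2. IL-8 and TNFα in supernatants measured by sandwich ELISA.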

[3] = test system: PBMCs; experiment: IL-2 and IFN gamma release in CD3/CD28 stimulated PBMC cells; conditions: Homo sapiens, assay (c)
Description: PBMCs from healthy subjects are separated from whole blood using a density gradient (Lymphoprep, Axis-Shield Healthcare). Cells are added to a 96 well plate pre-coated with a mixture of CD3/CD28 monoclonal antibodies (0.3 μg/mL eBioscience and 3 μg/mL BD Pharmingen respectively). Compound at the desired concentration is then added to the wells and the plate left for 3 days under normal tissue culture conditions. […] The IC50 is determined from the dose response curve.

[4] = test system: PBMCs; experiment: Cell mitosis assay in PBMCs; conditions: Homo sapiens, PBMC, 5 μg/mL
Description: Peripheral blood mononucleocytes (PBMCs) from healthy subjects are separated from whole blood (Quintiles, London, UK) using a density gradient (Histopaque®-1077, Sigma-Aldrich, Poole, UK). The PBMCs (3 million cells per sample) are subsequently treated with 2% PHA (phytohaemagglutinin, Sigma-Aldrich, Poole, UK) for 48 hr, followed by a 20 hr exposure to varying concentrations of test compounds. At 2 hr before collection, PBMCs are treated with demecolcine (0.1 μg/mL; Invitrogen, Paisley, UK) to arrest cells in metaphase. To observe mitotic cells, PBMCs are permeabilised and fixed by adding Intraprep (50 μL; Beckman Coulter, France), and stained with anti-phospho-histone 3 (0.26 ng/L; #9701; Cell Signalling, Danvers, Mass.) and propidium iodide (1 mg/mL; Sigma-Aldrich, Poole, UK) as previously described (Muehlbauer P. A. and Schuler M. J., Mutation Research, 2003, 537:117-130). Fluorescence is observed using an ATTUNE flow cytometer (Invitrogen, Paisley, UK), gating for lymphocytes.

[5] = read-out: IC50 Values for Inhibition of Cytokine Release PBMCs IFNγ
[6] = read-out: IC50 Values for Inhibition of Cytokine Release PBMCs IL-2

Compound | IC50 [1] | IC50 [2] | IC50 [3, 5] | IC50 [3, 6] | inhibition at 5 µg/mL [4]
COCCOCCOCCOc1cc(Nc2nccc(Oc3ccc(NC(=O)Nc4cc(C(C)(C)C)cc(NS(C)(=O)=O)c4-c4ccccc4)c4ccccc34)n2)cc(OC)c1 [83(a), N-(4-(tert-butyl)-6-(3-(4-((2-((3-methoxy-5-(2-(2-(2-methoxyethoxy)ethoxy)ethoxy)phenyl)-amino)pyrimidin-4-yl)oxy)naphthalen-1-yl)ureido)-[1,1′-biphenyl]-2-yl)methane-sulfonamide] | 62.5 nM | 39 nM |  |  | 
COCCOCCOCCOc1cc(Nc2nccc(Oc3ccc(NC(=O)Nc4cc(N5CCOCC5)ccc4OC)c4ccccc34)n2)cc(OC)c1 [Example 12, 1-(4-((2-((3-Methoxy-5-(2-(2-(2-methoxyethoxy)ethoxy)ethoxy)phenyl)amino)-pyrimidin-4-yl)oxy)naphthalen-1-yl)-3-(2-methoxy-5-morpholinophenyl)urea] | 1320 nM | 107 nM |  |  | 
CNC(=O)c1cc(NC(=O)Nc2ccc(Oc3ccnc(Nc4cc(OC)cc(OCCOCCOCCOC)c4)n3)c3ccccc23)cc(C(C)(C)C)c1 [Example 23, 3-(tert-Butyl)-5-(3-(4-((2-((3-methoxy-5-(2-(2-(2-methoxyethoxy)ethoxy)ethoxy)phenyl)-amino)pyrimidin-4-yl)oxy)naphthalen-1-yl)ureido)-N-methylbenzamide] | 4.7 nM | 2.6 nM | 9.1 nM | 17.1 nM | 25.4%
COCCOCCOc1cc(Nc2nccc(Oc3ccc(NC(=O)Nc4cc(C(C)(C)C)cc(NS(C)(=O)=O)c4OC)c4ccccc34)n2)cc(OC)c1 [Example 36, N-(5-(tert-Butyl)-2-methoxy-3-(3-(4-((2-((3-methoxy-5-(2-(2-methoxyethoxy)ethoxy)-phenyl)amino)pyrimidin-4-yl)oxy)naphthalen-1-yl)ureido)phenyl)methanesulfonamide] | 0.8 nM | 1.8 nM | 5.7 nM | 65.3 nM | 45%
C#Cc1cc(Nc2cc(Oc3ccc(NC(=O)Nc4cc(C(C)(C)C)cc(C(=O)NC)c4OC)c4ccccc34)ccn2)cc(C(=O)NCCN2CCOCC2)c1 [Example 39, 5-(tert-Butyl)-3-(3-(4-((2-((3-ethynyl-5-((2-morpholinoethyl)carbamoyl)phenyl)amino)-pyridin-4-yl)oxy)naphthalen-1-yl)ureido)-2-methoxy-N-methylbenzamide] | 5.3 nM | 2.5 nM | 9.6 nM | 132 nM | 34.7%
COCCOCCOCCOCCOCCOCCOCCOc1cc(Nc2cc(Oc3ccc(NC(=O)Nc4cc(C(C)(C)C)cc(NS(C)(=O)=O)c4OC)c4ccccc34)ccn2)cc(OC)c1 [Example 45, N-(3-(3-(4-((2-((3-(2,5,8,11,14,17,20-Heptaoxadocosan-22-yloxy)-5-methoxyphenyl)-amino)pyridin-4-yl)oxy)naphthalen-1-yl)ureido)-5-(tert-butyl)-2-methoxyphenyl)methane-sulfonamide] | 2.1 nM | 1.4 nM | 7.8 nM | 182 nM | 45%
C#Cc1cc(Nc2cc(Oc3ccc(NC(=O)Nc4cc(C(C)(C)C)cc(C(N)=O)c4OC)c4ccccc34)ccn2)cc(C(=O)NCCN2CCOCC2)c1 [Example 48, 3-((4-((4-(3-(5-(tert-Butyl)-3-carbamoyl-2-methoxyphenyl)ureido)naphthalen-1-yl)oxy)pyridin-2-yl)amino)-5-ethynyl-N-(2-morpholinoethyl)benzamide] | 10.2 nM | 3.4 nM | 17.2 nM | 144 nM | 44.2%
C#Cc1cc(Nc2cc(Oc3ccc(NC(=O)Nc4cc(C(C)(C)C)cc(NS(C)(=O)=O)c4OC)c4ccccc34)ccn2)cc(C(=O)NCCN2CCOCC2)c1 [Example 49, 3-((4-((4-(3-(5-(tert-Butyl)-2-methoxy-3-(methylsulfonamido)phenyl)ureido)naphthalen-1-yl)oxy)pyridin-2-yl)amino)-5-ethynyl-N-(2-morpholinoethyl)benzamide] | 8.6 nM | 2.5 nM | 11 nM | 227 nM | 40.1%
COCCOCCOCCOc1cc(Nc2nccc(Oc3ccc(NC(=O)Nc4cc(C(C)(C)C)cc(C(=O)NC5COC5)c4OC)c4ccccc34)n2)cc(OC)c1 [Example 51, 5-(tert-Butyl)-2-methoxy-3-(3-(4-((2-((3-methoxy-5-(2-(2-(2-methoxyethoxy)ethoxy)-ethoxy)phenyl)amino)pyrimidin-4-yl)oxy)naphthalen-1-yl)ureido)-N-(oxetan-3-yl)-benzamide] | 1.7 nM | 1.6 nM | 1.8 nM | 46.3 nM | 44.3%
COCCOCCOCCOc1cc(Nc2nccc(Oc3ccc(NC(=O)Nc4cc(C(C)(C)C)cc(-c5cnn[nH]5)c4OC)c4ccccc34)n2)cc(OC)c1 [Example 70, 1-(5-(tert-Butyl)-2-methoxy-3-(1H-1,2,3-triazol-5-yl)phenyl)-3-(4-((2-((3-methoxy-5-(2-(2-(2-methoxyethoxy)ethoxy)ethoxy)phenyl)amino)pyrimidin-4-yl)oxy)naphthalen-1-yl)urea] | 4.1 nM | 4.9 nM | 7.4 nM |  | 
COCCOCCOCCOc1cc(Nc2nccc(Oc3ccc(NC(=O)Nc4cc(C(C)(C)C)cc(NS(=O)(=O)C(F)(F)F)c4OC)c4ccccc34)n2)cc(OC)c1 [Example 71, N-(5-(tert-Butyl)-2-methoxy-3-(3-(4-((2-((3-methoxy-5-(2-(2-(2-methoxyethoxy)ethoxy)-ethoxy)phenyl)amino)pyrimidin-4-yl)oxy)naphthalen-1-yl)ureido)phenyl)-1,1,1-trifluoro-methanesulfonamide] | 1150 nM | 114 nM |  |  | 
COCCOCCOCCOc1cc(Nc2nccc(Oc3ccc(NC(=O)Nc4cc(C(C)(C)C)cc(NS(=O)(=O)C5CCCCC5)c4OC)c4ccccc34)n2)cc(OC)c1 [Example 72, N-(5-(tert-Butyl)-2-methoxy-3-(3-(4-((2-((3-methoxy-5-(2-(2-(2-methoxyethoxy)ethoxy)-ethoxy)phenyl)amino)pyrimidin-4-yl)oxy)naphthalen-1-yl)ureido)phenyl)cyclohexane-sulfonamide] | 19.2 nM | 11.8 nM |  |  | 
COCCOCCOCCOc1cc(Nc2nccc(Oc3ccc(NC(=O)Nc4cc(C(C)(C)C)cc(NS(=O)(=O)N5CCCCC5)c4OC)c4ccccc34)n2)cc(OC)c1 [Example 73, N-(5-(tert-Butyl)-2-methoxy-3-(3-(4-((2-((3-methoxy-5-(2-(2-(2-methoxyethoxy)ethoxy)-ethoxy)phenyl)amino)pyrimidin-4-yl)oxy)naphthalen-1-yl)ureido)phenyl)piperidine-1-sulfonamide] | 31.6 nM | 19 nM |  |  | 
COCCOCCOCCOc1cc(Nc2nccc(Oc3ccc(NC(=O)Nc4cc(C(C)(C)C)cc(NS(=O)(=O)N(C)C)c4OC)c4ccccc34)n2)cc(OC)c1 [Example 74, N-(5-(tert-Butyl)-2-methoxy-3-(3-(4-((2-((3-methoxy-5-(2-(2-(2-methoxyethoxy)ethoxy)-ethoxy)phenyl)amino)pyrimidin-4-yl)oxy)naphthalen-1-yl)ureido)phenyl)dimethylamino-sulfonamide] | 11.7 nM | 6.6 nM |  |  | 
COc1c(NC(=O)Nc2ccc(Oc3ccnc(NCc4ccccn4)c3)c3ccccc23)cc(C(C)(C)C)cc1C(=O)NC1COC1 [Example 80, 5-(tert-Butyl)-2-methoxy-N-(oxetan-3-yl)-3-(3-(4-((2-((pyridin-2-ylmethyl)amino)pyridin-4-yl)oxy)naphthalen-1-yl)ureido)benzamide] |  | 4.3 nM | 23.8 nM |  | 70.4%
COc1cccc(Nc2cc(Oc3ccc(NC(=O)Nc4cc(C(C)(C)C)cc(C(=O)NC5COC5)c4OC)c4ccccc34)ccn2)c1 [Example 81, 5-(tert-Butyl)-2-methoxy-3-(3-(4-((2-((3-methoxyphenyl)amino)pyridin-4-yl)oxy)naphthalen-1-yl)ureido)-N-(oxetan-3-yl)benzamide] |  | 2.7 nM | 4 nM | 98.8 nM | 58.1%
